The values below are quoted from earlier work in patent publication US20250255927A1, “COMPOSITIONS AND METHODS FOR ALLEVIATING ADVERSE EFFECTS FROM RESPONSIBLE ALCOHOL CONSUMPTION” (Cheers Health, Inc., priority 2023, published 2025).

The conditions of series [1]: rat models.
Another series concerns pain. The following applies: 1 g of salicin.

`CCNC(=O)CC[C@H](N)C(=O)O` [L-Theanine]: in series [1], the “time to reach the brain without any metabolic change” value is reported as not above 30 min.

Turning to `OCc1ccccc1O[C@@H]1O[C@H](CO)[C@@H](O)[C@H](O)[C@H]1O` [salicin], the “amount of aspirin with comparable pain relief effect” value in the series on pain is on record as approximately 620 mg.
